Patent US10039288B2, “Pathogenic infections” (University of Surrey, priority 2015, dated 2018)
≈ marks a conversion by molar mass, not a printed value. Where “and” joins values, the source holds several entries; their conditions need not be identical. Equal values may be shown once. Read-outs that look alike come from different tables or passages of the source.

Assays:
Phytophthora infestans = format: cell-based; conditions: germination, in vitro
Plasmopara viticola [1] = assay: Preliminary screening of crude extracts and compounds (Table 3)
Plasmopara viticola [2] = assay: In vitro zoospore germination and activity, MIC(100%); format: cell-based; conditions: for MIC: Plasmopara viticola, read-out: Minimal inhibitory concentration (MIC(100%)) Plasmopara viticola; for Minimal inhibitory concentration (MIC(100%)) Plasmopara viticola: zoospore germination and activity, in vitro
P. viticola = system: P. viticola; set-up: species or system Plasmopara viticola
[3] = 0.147% mass/volume, Isopropanol

**Q.** With `COc1cc(C[C@H]2CO[C@H](c3ccc(O)c(OC)c3)[C@H]2COC(C)=O)ccc1O` [Compound 4, (+)-lariciresinol acetate] as the compound, how does the “Minimal inhibitory concentration (MIC(100%)) Phytophthora infestans” value (Phytophthora infestans) read?
**A.** The value was “No actvity”.

**Q.** And the Activity (Plasmopara viticola [1]; sample 0.008% mass/volume)?
**A.** The Activity was 13.1%.

**Q.** And the Activity (Plasmopara viticola [1]; sample 0.036% mass/volume)?
**A.** The Activity was 78.8%.

**Q.** And the Activity (Plasmopara viticola [1]; sample 0.08% mass/volume)?
**A.** The Activity was 92.4%.

**Q.** And the MIC (Plasmopara viticola [2])?
**A.** The MIC was 125 µg/mL.

**Q.** Which results are given for `C=CC(C)(O)CCC1C(=C)CC(OC(C)=O)C2C(C)(C)CCCC12C` (stereo not drawn) [Compound 2, larixyl acetate]?
**A.** Minimal inhibitory concentration (MIC(100%)) Phytophthora infestans (Phytophthora infestans): 125 ppm; Efficacy (%) (P. viticola; 0.01% mass/volume, Isopropanol): 24.5%; Efficacy (%) (P. viticola; 0.012% mass/volume, Ethanol): 69.2%; Efficacy (%) (P. viticola; 0.025% mass/volume, Ethanol): 83.3%; Efficacy (%) (P. viticola; 0.05% mass/volume, Ethanol): 98.4%; Efficacy (%) (P. viticola; 0.1% mass/volume, Ethanol): 99.9% and 99.4%; Efficacy (%) (P. viticola; 0.12% mass/volume, Ethanol): 100.0%; Efficacy (%) (P. viticola; [3]): 99.5%; Activity (Plasmopara viticola [1]; sample 0.012% mass/volume): 69.2%; Activity (Plasmopara viticola [1]; sample 0.12% mass/volume): 100%; Minimal inhibitory concentration (MIC(100%)) Plasmopara viticola (Plasmopara viticola [2]): 4 ppm

**Q.** `C=C[C@@](C)(O)CC[C@H]1C(=C)C[C@H](O)[C@H]2C(C)(C)CCC[C@]12C` [Compound 1, larixol] was tested. Which “Minimal inhibitory concentration (MIC(100%)) Phytophthora infestans” value (Phytophthora infestans) did it give?
**A.** Its value is 500 ppm.

**Q.** What about the “Efficacy (%)” value (P. viticola; 0.0147% mass/volume, Isopropanol) of the same compound?
**A.** The value was 36.3%.

**Q.** What about the “Efficacy (%)” value (P. viticola; 0.025% mass/volume, Ethanol) of the same compound?
**A.** Its value is 91.2%.

**Q.** And the “Efficacy (%)” value (P. viticola; 0.074% mass/volume, Isopropanol)?
**A.** The value was 100.0%.

**Q.** What about the “Efficacy (%)” value (P. viticola; 0.1% mass/volume, Ethanol) of the same compound?
**A.** The value was 98.8%.

**Q.** What about the “Efficacy (%)” value (P. viticola; [3]) of the same compound?
**A.** The value was 99.5%.

**Q.** And the Activity (Plasmopara viticola [1]; sample 0.0147% mass/volume)?
**A.** Its Activity is 36.3%.

**Q.** And the Activity (Plasmopara viticola [1]; sample 0.074% mass/volume)?
**A.** The Activity was 100%.

**Q.** What about the Activity (Plasmopara viticola [1]; sample 0.147% mass/volume) of the same compound?
**A.** Its Activity is 99.5%.

**Q.** And the “Minimal inhibitory concentration (MIC(100%)) Plasmopara viticola” value (Plasmopara viticola [2])?
**A.** The value was 16 ppm.

**Q.** With `COc1cc(C[C@H]2CO[C@H](c3ccc(O)c(OC)c3)[C@H]2CO)ccc1O` [Compound 3, (+)-lariciresinol] as the compound, how does the “Minimal inhibitory concentration (MIC(100%)) Phytophthora infestans” value (Phytophthora infestans) read?
**A.** Its value is “No activity”.

**Q.** And the Activity (Plasmopara viticola [1]; sample 0.01% mass/volume)?
**A.** The Activity was 14.4%.

**Q.** What about the Activity (Plasmopara viticola [1]; sample 0.1% mass/volume) of the same compound?
**A.** The Activity was 94.1%.

**Q.** What about the MIC (Plasmopara viticola [2]) of the same compound?
**A.** Its MIC is 250 µg/mL (≈ 694 µM).
